Data from patent US20260256794A1, “Oral Dynamine Formulations and Methods Therefor” (Ortho-Nutra, LLC, priority 2023, published 2026).

Experiments:
Format in all cases: in vivo, human
[1] = system: subjects; test: VAS-Sustained Energy; parameters: VAS-Sustained Energy rating, Mean / VAS-Sustained Energy changes from baseline, Mean Difference ± SE / VAS-Sustained Energy Δ, Mean Difference ± SE / VAS-Sustained Energy area under the curve, Mean Difference ± SE / VAS-Sustained Energy area under the curve, Mean: scale not given here; settings: for VAS-Sustained Energy Δ, effect size d / VAS-Sustained Energy Δ from 0 min, Mean / VAS-Sustained Energy Δ, Mean Difference ± SE: females; for VAS-Sustained Energy Δ, effect size d: vs placebo; for VAS-Sustained Energy Δ, Mean Difference ± SE: B vs A (placebo)
Experimental: (§1) The inventors have discovered various compositions and methods of improving various indices of neurological and neuroenergetic functions by administering 100 mg (once daily) dosages of DYNAMINE™ (dosage between 1.0 and 1.4 mg/kg) as described in the following:
(§2) All neuroenergetic tests as listed below were performed and data were collected after 0 and 4 days of assigned supplements (with acute effects also measured at day 4 over 180 minutes):
(§3) All VAS Measurement (Energy, Sustained Energy, Mental Stamina, Ability to Focus, Ability to Concentrate, Motivation to Accomplish Difficult Tasks, Drive, Vigor, Level of Positive Outlook, Mood, Feelings of Well-Being, Tolerate Stress); Day 0: Two tests were completed. The average of both scores was computed and this value was used in all statistical analysis. Day 4 (0 minutes after ingesting dose #4): Two tests were completed. The average of both scores was computed and this value was used in all statistical analysis. Day 4 (60, 120, and 180 minutes after ingesting dose #4): One test was completed at each time point.
(§4) Neuroenergic parameters are inherently subjective, nevertheless significant in human behavior and well-being. To allow for a standardization among different subjects, the following experiments were performed using a visual analog scale using anchor statements (lowest possible/highest possible) in which subjects were asked to rate their subjective experience with respect to the specific neuroenergic parameters tested.
VAS-Sustained Energy: In this subjective test, subjects were asked to rate their personal level of energy on a VAS scale using the prompt of “My level of sustained energy right now is . . . ” (with rating lowest possible to highest possible)”. Results were collected as noted above and Table 6 provides exemplary results for Day 0 versus Day 4 ratings, whereas Table 7 provides exemplary acute results measured at Day 4 over a duration of 180 minutes.

[2] = system: subjects; test: VAS-Drive; parameters: VAS-Drive rating, Mean / VAS-Drive changes from baseline, Mean Difference ± SE: scale not given here; VAS-Drive area under the curve, Mean Difference ± SE / VAS-Drive area under the curve, Mean: unit not given here
Experimental: as §1, §2, §3, §4
VAS-Drive: In this subjective test, subjects were asked to rate their personal level of energy on a VAS scale using the prompt of “My drive right now is . . . ” (with rating lowest possible to highest possible)”. Results were collected as noted above and Table 22 provides exemplary results for Day 0 versus Day 4 ratings, whereas Table 23 provides exemplary acute results measured at Day 4 over a duration of 180 minutes.

[3] = system: subjects; test: Hemodynamics: diastolic blood pressure; settings: for Diastolic blood pressure changes from baseline, Mean Difference ± SE / Diastolic blood pressure changes from baseline, effect size d: between groups (placebo)
Experimental: as §1
Hemodynamics Systolic Blood Pressure, Diastolic Blood Pressure, Heart Rate were taken Pre and Post Stroop Test on Day 0; Pre and Post Stroop Test after 4 Days of Supplementation 0, 60, 120, and 180 minutes after ingestion of 4th dose.
For hemodynamic parameters, systolic blood pressure, diastolic blood pressure, and heart rate were taken pre- and post-Stroop Test on Day 0, and pre- and post-Stroop Test after 4 Days of Supplementation 0, 60, 120, and 180 minutes after ingestion of 4th dose.

[4] = 100 mg once daily, Day 4, 0-180 min
[5] = 100 mg once daily, Day 4, 0-180 min, vs Group A (placebo)
[6] = 100 mg once daily, Day 4, 0 min after dose #4
[7] = 100 mg once daily, Day 4, 60 min-0 min, vs Group A (placebo)
[8] = 100 mg once daily, Day 4, 60 min after dose #4
[9] = 100 mg once daily, Day 4, 120 min-0 min, vs Group A (placebo)
[10] = 100 mg once daily, Day 4, 120 min after dose #4
[11] = 100 mg once daily, Day 4, 180 min-0 min, vs Group A (placebo)
[12] = 100 mg once daily, Day 4, 180 min after dose #4
[13] = 100 mg once daily, Day 4, Δ @ 60 min
[14] = 100 mg once daily, Day 4, Δ @ 120 min
[15] = 100 mg once daily, Day 4, Δ @ 180 min
[16] = 100 mg once daily, Day 4, 60 min-0 min
[17] = 100 mg once daily, Day 4, 120 min-0 min
[18] = 100 mg once daily, Day 4, 180 min-0 min

## COc1nc2c(c(=O)n1C)n(C)c(=O)n2C [methylliberine, 2-methoxy-1,7,9-trimethylpurine-6,8-dione]
[1]; [4]
  VAS-Sustained Energy area under the curve, Mean: 1073
[1]; [5]
  VAS-Sustained Energy area under the curve, Mean Difference ± SE: 45.2 ± 41.7
  VAS-Sustained Energy area under the curve, effect size d: −0.13
[1]; [6]
  VAS-Sustained Energy rating, Mean: 5.7
[1]; [7]
  VAS-Sustained Energy changes from baseline, Mean Difference ± SE: 0.22 ± 0.22
  VAS-Sustained Energy changes from baseline, effect size d: 0.27
[1]; [8]
  VAS-Sustained Energy rating, Mean: 6.2
[1]; [9]
  VAS-Sustained Energy changes from baseline, Mean Difference ± SE: −0.11 ± 0.25
  VAS-Sustained Energy changes from baseline, effect size d: −0.11
[1]; [10]
  VAS-Sustained Energy rating, Mean: 6.3
[1]; [11]
  VAS-Sustained Energy changes from baseline, Mean Difference ± SE: 0.24 ± 0.23
  VAS-Sustained Energy changes from baseline, effect size d: 0.24
[1]; [12]
  VAS-Sustained Energy rating, Mean: 6.5
[1]; Day 0 (before supplementation)
  VAS-Sustained Energy rating, Mean: 5.6
[1]; 100 mg once daily, Day 4, 60 min
  VAS-Sustained Energy Δ, effect size d: 0.86
[1]; 100 mg once daily, Day 4, 120 min
  VAS-Sustained Energy Δ, effect size d: 0.62
[1]; 100 mg once daily, Day 4, 120 min, listed as B
  VAS-Sustained Energy Δ, effect size d: 0.03
[1]; 100 mg once daily, Day 4, 180 min
  VAS-Sustained Energy Δ, effect size d: 0.62
[1]; [13]
  VAS-Sustained Energy Δ from 0 min, Mean: 0.85
  VAS-Sustained Energy Δ, Mean Difference ± SE: 0.74 ± 0.29
[1]; [14]
  VAS-Sustained Energy Δ from 0 min, Mean: 0.88
  VAS-Sustained Energy Δ, Mean Difference ± SE: 0.02 ± 0.35
[1]; [15]
  VAS-Sustained Energy Δ from 0 min, Mean: 1.28
  VAS-Sustained Energy Δ, Mean Difference ± SE: 0.72 ± 0.31
[2]; [4]
  VAS-Drive area under the curve, Mean: 1110
[2]; [5]
  VAS-Drive area under the curve, Mean Difference ± SE: 20.4 ± 37.8
  VAS-Drive area under the curve, effect size d: 0.06
[2]; [6]
  VAS-Drive rating, Mean: 5.9
[2]; [7]
  VAS-Drive changes from baseline, Mean Difference ± SE: −0.06 ± 0.27
  VAS-Drive changes from baseline, effect size d: −0.07
[2]; [8]
  VAS-Drive rating, Mean: 6.1
[2]; [9]
  VAS-Drive changes from baseline, Mean Difference ± SE: −0.16 ± 0.28
  VAS-Drive changes from baseline, effect size d: −0.15
[2]; [10]
  VAS-Drive rating, Mean: 6.2
[2]; [11]
  VAS-Drive changes from baseline, Mean Difference ± SE: 0.33 ± 0.35
  VAS-Drive changes from baseline, effect size d: 0.26
[2]; [12]
  VAS-Drive rating, Mean: 6.4
[2]; Day 0 (before supplementation)
  VAS-Drive rating, Mean: 5.8
[3]; 100 mg once daily, Day 4, 0 min after 4th dose
  Diastolic blood pressure, Mean: 77.3 mm Hg
[3]; [16]
  Diastolic blood pressure changes from baseline, Mean Difference ± SE: 1.28 ± 1.65 mm Hg
  Diastolic blood pressure changes from baseline, effect size d: −0.21
[3]; 100 mg once daily, Day 4, 60 min after 4th dose
  Diastolic blood pressure, Mean: 76.9 mm Hg
[3]; [17]
  Diastolic blood pressure changes from baseline, Mean Difference ± SE: 5.84 ± 1.55 mm Hg
  Diastolic blood pressure changes from baseline, effect size d: −0.84
[3]; 100 mg once daily, Day 4, 120 min after 4th dose
  Diastolic blood pressure, Mean: 75.6 mm Hg
[3]; [18]
  Diastolic blood pressure changes from baseline, Mean Difference ± SE: 2.64 ± 1.66 mm Hg
  Diastolic blood pressure changes from baseline, effect size d: −0.42
[3]; 100 mg once daily, Day 4, 180 min after 4th dose
  Diastolic blood pressure, Mean: 77.2 mm Hg
[3]; Day 0 (before supplementation)
  Diastolic blood pressure, Mean: 76.6 mm Hg
